Data: US20140120036A1, “RADIOLABELED 5-HT6 LIGANDS” (AbbVie Inc., priority 2012, published 2014)
Read-outs that look alike come from different tables or passages of the source.

Experiments:
[1] = Brain regional distribution of [3H]compound relative to cerebellum; format: in vivo
[2] = Rat PK (0.05 mg/kg, iv), plasma and brain concentrations; format: in vivo; conditions: for Free B/P Ratio: free brain concentration divided by free plasma concentration
[3] = Rat microsome half-life; format: in vitro ADME; conditions: rat microsomes, read-out: Rat microsome T½ (mm)
[4] = target: T1, h-5-HT2A receptor (Homo sapiens, UniProt P28223); assay: 5-HT2A receptor binding assay ([125I]-DOI displacement, CHO-K1 membranes)
T1 construct: purchased Perkin Elmer ES-3,3-M400UA; host or cells: CHO-K1 cell membranes
T1 sequence (P28223 whole entry): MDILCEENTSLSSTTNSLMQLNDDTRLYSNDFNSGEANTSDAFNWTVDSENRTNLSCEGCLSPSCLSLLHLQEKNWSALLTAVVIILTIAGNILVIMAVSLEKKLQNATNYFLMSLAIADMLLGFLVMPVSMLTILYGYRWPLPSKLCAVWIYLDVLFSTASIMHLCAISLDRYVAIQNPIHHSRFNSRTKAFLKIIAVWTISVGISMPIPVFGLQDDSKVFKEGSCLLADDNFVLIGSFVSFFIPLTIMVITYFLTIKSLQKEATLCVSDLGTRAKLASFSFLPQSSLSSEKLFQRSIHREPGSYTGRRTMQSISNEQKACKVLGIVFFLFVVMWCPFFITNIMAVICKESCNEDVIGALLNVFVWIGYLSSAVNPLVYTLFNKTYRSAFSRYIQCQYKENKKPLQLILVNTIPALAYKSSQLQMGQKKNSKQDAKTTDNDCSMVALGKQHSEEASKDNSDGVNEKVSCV
Method: The cells were collected by centrifugation at 500 g for 10 min. at 4° C., washed with PBS and centrifuged (500 g, 10 min. 4° C.). The pellets were stored at −80° C. until use. For membrane preparation, the thawed cell pellet was resuspended in ice-cold sucrose buffer (0.25 M sucrose, 10 mM Hepes (pH 7.4), 1 mM Phenylmethylsulfonyl fluoride (PMSF) in DMSO, […] Pepstatin-A, 3 mM EDTA, 0.025% Bacitracin) and homogenized with a Branson Sonifier W-250 (Settings: Timer 4; Output Control 3; Duty Cycle constant; 2 to 3 cycles). Cell disruption was checked with the aid of a microscope. Remaining unbroken cells were pelleted at 1,000 g for 10 min. at 4° C. The sucrose buffer supernatant was then centrifuged at 60,000 g for 1 h at 4° C. (Beckman Ultrazentrifuge XL 80). The pellet was resuspended in 30 ml ice-cold Tris buffer (20 mM TRIS (pH 7.4), […] Pepstatin A, 0.1 mM PMSF, 3 mM EDTA) by pipetting through a 10 ml serological pipet and centrifuged for 1 h at 4° C. at 60,000 g. A final resuspension was performed in a small volume of ice-cold Tris buffer (see above) by pressing through a serological pipet followed by ultrasonic treatment with a Branson Sonifier W-250 (Settings: Timer 1; Output Control 3; Duty Cycle constant; 1 cycle). Protein concentration was determined (BCA-Kit; Pierce) and aliquots stored at −80° C. or in liquid nitrogen for long-term storage.
After the plates had been dried for 2 h at 55° C. in a drying chamber scintillation cocktail (BetaPlate Scint; PerkinElmer) was added. Radioactivity was measured in a Microbeta Trilux two hours after the addition of the scintillation mixture. Data derived from liquid scintillation counting were analysed by iterative non-linear regression analysis with the use of the Statistical Analysis System (SAS): a program similar to “LIGAND” as described by Munson and Rodbard (Analytical Biochemistry 107, 220-239 (1980).
Data derived from liquid scintillation counting were analyzed by iterative non-linear regression analysis with the use of the Statistical Analysis System (SAS): a program similar to “LIGAND” as described by Munson and Rodbard (Anal. Biochem. 1980, 107, 220-239). Fitting was performed according to formulae described by Feldman (Anal. Biochem. 1972, 48, 317-338).

[5] = target: 78 targets (CEREP) other than the 5-HT6 receptor; assay: Selectivity panel, 78 targets (CEREP); format: binding; conditions: all but the 5-HT2B and 5-HT2A receptors, read-out: Ki at ancillary targets
[6] = target: T2, h-5-HT6 receptor (Homo sapiens, UniProt P50406); assay: 5-HT6 receptor binding assay ([3H]-LSD displacement, HEK293 membranes); conditions: human 5-HT6
T2 construct: expressed in transfected cells
T2 sequence (P50406 whole entry): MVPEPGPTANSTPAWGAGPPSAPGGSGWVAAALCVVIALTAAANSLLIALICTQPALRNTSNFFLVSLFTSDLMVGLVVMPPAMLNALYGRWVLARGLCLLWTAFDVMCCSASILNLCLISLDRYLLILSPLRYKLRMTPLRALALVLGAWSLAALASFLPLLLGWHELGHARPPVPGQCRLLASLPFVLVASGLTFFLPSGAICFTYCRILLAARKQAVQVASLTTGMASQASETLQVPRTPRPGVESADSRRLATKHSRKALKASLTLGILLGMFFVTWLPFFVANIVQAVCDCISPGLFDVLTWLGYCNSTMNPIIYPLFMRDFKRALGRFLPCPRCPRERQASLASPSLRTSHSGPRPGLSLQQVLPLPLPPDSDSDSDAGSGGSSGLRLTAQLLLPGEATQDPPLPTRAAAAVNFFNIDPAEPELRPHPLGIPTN
Method: The cells were collected by centrifugation at 500 g for 10 min. at 4° C., washed with PBS and centrifuged (500 g, 10 min. 4° C.). The pellets were stored at −80° C. until use. For membrane preparation, the thawed cell pellet was resuspended in ice-cold sucrose buffer (0.25 M sucrose, 10 mM Hepes (pH 7.4), 1 mM Phenylmethylsulfonyl fluoride (PMSF) in DMSO, […] Pepstatin-A, 3 mM EDTA, 0.025% Bacitracin) and homogenized with a Branson Sonifier W-250 (Settings: Timer 4; Output Control 3; Duty Cycle constant; 2 to 3 cycles). Cell disruption was checked with the aid of a microscope. Remaining unbroken cells were pelleted at 1,000 g for 10 min. at 4° C. The sucrose buffer supernatant was then centrifuged at 60,000 g for 1 h at 4° C. […] Protein concentration was determined (BCA-Kit; Pierce) and aliquots stored at −80° C. or in liquid nitrogen for long-term storage.
After the plates had been dried for 2 h at 55° C. in a drying chamber scintillation cocktail (BetaPlate Scint; PerkinElmer) was added. Radioactivity was measured in a Microbeta Trilux two hours after the addition of the scintillation mixture. Data derived from liquid scintillation counting were analysed by iterative non-linear regression analysis with the use of the Statistical Analysis System (SAS): a program similar to “LIGAND” as described by Munson and Rodbard (Analytical Biochemistry 107, 220-239 (1980). […]

[7] = target: Rat 5-HT6 (Rattus norvegicus, UniProt P31388); assay: Rat 5-HT6 binding
Sequence of Rat 5-HT6 (P31388 whole entry): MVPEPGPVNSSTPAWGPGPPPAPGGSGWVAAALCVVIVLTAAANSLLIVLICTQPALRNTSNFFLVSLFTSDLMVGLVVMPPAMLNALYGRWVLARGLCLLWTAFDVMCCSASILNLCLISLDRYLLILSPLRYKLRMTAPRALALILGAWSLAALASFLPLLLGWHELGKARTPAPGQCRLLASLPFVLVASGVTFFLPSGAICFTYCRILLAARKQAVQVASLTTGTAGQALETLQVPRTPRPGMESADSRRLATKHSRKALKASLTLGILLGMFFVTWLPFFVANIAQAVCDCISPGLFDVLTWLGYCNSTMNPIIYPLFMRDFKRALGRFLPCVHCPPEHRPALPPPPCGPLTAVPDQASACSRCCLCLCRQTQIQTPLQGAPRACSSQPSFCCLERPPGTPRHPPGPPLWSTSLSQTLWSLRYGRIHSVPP

[8] = target: T3, h-5-HT2B receptor (Homo sapiens, UniProt P41595); assay: 5-HT2B receptor binding assay ([125I]-DOI displacement, CHO-K1 membranes); conditions: text
T3 construct: purchased Perkin Elmer ES-3,4-M400UA; host or cells: CHO-K1 cell membranes
T3 sequence (P41595 whole entry): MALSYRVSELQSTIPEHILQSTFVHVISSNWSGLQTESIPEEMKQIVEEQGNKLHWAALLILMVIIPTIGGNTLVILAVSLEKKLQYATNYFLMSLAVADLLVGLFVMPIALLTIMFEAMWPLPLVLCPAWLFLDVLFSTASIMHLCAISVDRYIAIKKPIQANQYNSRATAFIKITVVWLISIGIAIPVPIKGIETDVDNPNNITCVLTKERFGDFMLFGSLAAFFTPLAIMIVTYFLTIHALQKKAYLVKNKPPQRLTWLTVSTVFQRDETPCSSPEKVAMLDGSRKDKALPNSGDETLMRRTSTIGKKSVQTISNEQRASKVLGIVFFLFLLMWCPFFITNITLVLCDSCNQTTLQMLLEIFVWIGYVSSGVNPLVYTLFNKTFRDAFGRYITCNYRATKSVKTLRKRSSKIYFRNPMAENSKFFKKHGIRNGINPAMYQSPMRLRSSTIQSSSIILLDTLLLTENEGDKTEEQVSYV
Method: Cells from stable clonal cell lines expressing the corresponding receptor (5-HT6, 5-HT2A or 5-HT2B receptors) were washed with PBS with 0.02% EDTA. The cells were collected by centrifugation at 500 g for 10 min. at 4° C., washed with PBS and centrifuged (500 g, 10 min. 4° C.). The pellets were stored at −80° C. until use. For membrane preparation, the thawed cell pellet was resuspended in ice-cold sucrose buffer (0.25 M sucrose, 10 mM Hepes (pH 7.4), 1 mM Phenylmethylsulfonyl fluoride (PMSF) in DMSO, […] Pepstatin-A, 3 mM EDTA, 0.025% Bacitracin) and homogenized with a Branson Sonifier W-250 (Settings: Timer 4; Output Control 3; Duty Cycle constant; 2 to 3 cycles). Cell disruption was checked with the aid of a microscope. Remaining unbroken cells were pelleted at 1,000 g for 10 min. at 4° C. The sucrose buffer supernatant was then centrifuged at 60,000 g for 1 h at 4° C. (Beckman Ultrazentrifuge XL 80). […] Protein concentration was determined (BCA-Kit; Pierce) and aliquots stored at −80° C. or in liquid nitrogen for long-term storage.
All receptor binding experiments were carried out in the corresponding assay buffer in a total volume of 200 μl in the presence of various concentrations of test compound (10 ^−5 M to 10^−9 M, tenfold serial dilution, duplicate determinations). […] Radioactivity was measured in a Microbeta Trilux two hours after the addition of the scintillation mixture. […]

[9] = target: Mk striatum 5-HT6 (Macaca mulatta, UniProt A0A5F7ZDI3); assay: Mk striatum 5-HT6 binding; design: species or system Mk (monkey)
Sequence of Mk striatum 5-HT6 (A0A5F7ZDI3 1-440): as the sequence (P50406 whole entry) above, with A41V, A49V, L141P, V304A, R342W, R393Q, Q406R, E429K, P432L, I437T counted along it

1-(5-(3-(difluoromethoxy)phenylsulfonyl)-2-methoxyphenyl)-4-([^3H]methyl)-piperazine [Example 3]
Hippo./Cer. ([1]; 3 min after dose): 3.7 | Striatum/Cer. ([1]; 3 min after dose): 10.4 | Hippo./Cer. ([1]; 40 min after dose): 1.4 | Striatum/Cer. ([1]; 40 min after dose): 2.0

COc1ccc(S(=O)(=O)c2cccc(OC(F)F)c2)cc1N1CCN(C)CC1 [Example 1, 4-(5-(3-(difluoromethoxy)phenylsulfonyl)-2-methoxyphenyl)-1-methylpiperazin-1-ium chloride]
Free [brain] ([2]; 3 min after dose): 53.4 ng/g | Plasma Conc. ([2]; 3 min after dose): 49.2 ng/mL | Free B/P Ratio ([2]; 3 min after dose): 1.1 | Free [brain] ([2]; 5 min after dose): 55.3 ng/g | Plasma Conc. ([2]; 5 min after dose): 29.0 ng/mL | Free B/P Ratio ([2]; 5 min after dose): 1.7 | half-life [3]: 10 min | Selectivity for 5-HT6 v. 5-HT2A ([4]; ratio of human 5-HT2A Ki to human 5-HT6 Ki): 475.6 × | Selectivity for 5-HT6 over 5-HT2A ([4]; text): 475.6 fold | Selectivity for 5-HT6 over 5-HT2A ([4]; text, listed as Example (1)): 475 fold | Ki ([4]; text, read-out: Ki at 5-HT2A receptor): 195 nM | Ki [5]: > 1000 nM | Ki [6]: 0.41 nM | Ki [7]: 1.5 nM | Ki [8]: 71 nM | Selectivity for 5-HT6 over 5-HT2B [8]: 173.2 fold

CN1CCN(c2cccc3cc(S(=O)(=O)c4cccc(F)c4)cnc23)CC1 [GSK-215083, reference compound]
Ki [9]: 3.2 nM | Ki ([4]; human 5-HT2A, read-out: Human 5-HT2A Ki): 0.395 nM
